This passage reports GI50 and TGI results from PubChem BioAssay (NCI).

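Exposure lasted 48 hours, with cells grown in 96-well plates and compounds tested at five concentrations. GI50: concentration for 50% inhibition of growth. TGI is the concentration that stops growth completely.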

Among the test systems are SNB-19 CNS; SF-295 CNS; MDA-MB-231 breast; NCI-H460 lung; HOP-92 NSCLC; HCT-15 colon; HL-60(TB) leukemia; MOLT-4 leukemia.
Common to all, as to assay: NCI tumour cell line growth inhibition, 48 h

As to `COC(=O)c1c2c(c(C)[n+]([O-])c1C)C(=O)C(NCc1ccc(F)c(Cl)c1)=CC2=O`, the GI50 with SNB-19 CNS was 2.81 µM; in the test on SF-295 CNS it was 1.62 µM; in the test on MDA-MB-231 breast, 1.76 µM; in the test on NCI-H460 lung, 1.51 µM; in the test on HOP-92 NSCLC, 2.52 µM; with HCT-15 colon, 1.39 µM. For the same compound, the GI50 in the test with HL-60(TB) leukemia was 1.39 µM; with MOLT-4 leukemia it was 2.42 µM. The TGI in the test with SNB-19 CNS came to 9.33 µM; with SF-295 CNS it was 4.26 µM; in the test with MDA-MB-231 breast, 5.6 µM; in the test with NCI-H460 lung it was 9.09 µM; with HOP-92 NSCLC, 5.79 µM; in the test with HCT-15 colon, 3.58 µM. Also, the TGI turned out to be 5.68 µM with HL-60(TB) leukemia and 7.2 µM with MOLT-4 leukemia.

On to `C[C@]12CC[C@H]3[C@@H](C[C@@H]4SC(Nc5cccc(F)c5)=N[C@@]45CC(=O)CC[C@]35C)[C@@H]1CCC2=O`, for which the GI50 was 2.33 µM in the test with SNB-19 CNS; 1.19 µM in the test on SF-295 CNS; 2.11 µM in the test with MDA-MB-231 breast; 2.52 µM in the test on NCI-H460 lung; 2.25 µM with HOP-92 NSCLC; 1.58 µM in the test on HCT-15 colon. The GI50 is 2.73 µM in the test with HL-60(TB) leukemia and 1.68 µM in the test on MOLT-4 leukemia. Besides, the TGI came to 5.69 µM with SNB-19 CNS; 2.97 µM in the test on SF-295 CNS; 4.59 µM with MDA-MB-231 breast; 5.58 µM with NCI-H460 lung; 4.17 µM with HOP-92 NSCLC; 4.08 µM in the test on HCT-15 colon. Moreover, the figures for the TGI in the test on HL-60(TB) leukemia and in the test on MOLT-4 leukemia were 8 µM and 28.3 µM, respectively.

As to `COc1ccc2cc(C(=O)/C=C/c3ccc(OC)c(OC)c3)ccc2c1`, the GI50 in the test on SNB-19 CNS is 27.2 µM; in the test on SF-295 CNS, 35.6 µM; in the test with MDA-MB-231 breast it was 4.75 µM; with NCI-H460 lung, 7.38 µM; in the test on HOP-92 NSCLC, 13.2 µM; with HCT-15 colon, 3.11 µM. The GI50 in the test with HL-60(TB) leukemia was 2.31 µM; in the test with MOLT-4 leukemia, 5.97 µM. The TGI is 80 µM with SNB-19 CNS; greater than 100 µM in the test on SF-295 CNS; 42.8 µM in the test on MDA-MB-231 breast; greater than 100 µM in the test on NCI-H460 lung; 80.3 µM in the test on HOP-92 NSCLC; greater than 100 µM with HCT-15 colon. For the same compound, the values for the TGI in the test with HL-60(TB) leukemia and in the test on MOLT-4 leukemia were 25 µM and greater than 100 µM, respectively.

For `C#C[C@]1(O)CC[C@H]2[C@@H]3CC=C4c5nc(Nc6ccc(OC)cc6OC)sc5CC[C@]4(C)[C@H]3CC[C@@]21C`, the GI50 in the test with SNB-19 CNS was 1.75 µM; in the test on SF-295 CNS it was 0.249 µM; in the test with MDA-MB-231 breast it was 1.26 µM; in the test on NCI-H460 lung, 2.65 µM; in the test with HOP-92 NSCLC, 2.1 µM; with HCT-15 colon it was 1.3 µM. Also, the GI50 in the test on HL-60(TB) leukemia was 1.42 µM; in the test on MOLT-4 leukemia it was 0.46 µM. Further, the TGI turned out to be 10.7 µM with SNB-19 CNS; 0.613 µM with SF-295 CNS; 5.34 µM in the test on MDA-MB-231 breast; 10.3 µM in the test on NCI-H460 lung; 7 µM in the test on HOP-92 NSCLC; 4.2 µM in the test with HCT-15 colon. For the same compound, the results for the TGI in the test on HL-60(TB) leukemia and with MOLT-4 leukemia were 5.91 µM and 4.69 µM, respectively.

In the case of `O=C(c1cccs1)c1c(C(F)(F)F)n([O-])c2cc(F)c(F)cc2[n+]1=O`, the GI50 in the test with SNB-19 CNS is 6.01 µM; in the test on SF-295 CNS, 3.71 µM; in the test on MDA-MB-231 breast, 1 µM; in the test on NCI-H460 lung, 2.03 µM; in the test on HOP-92 NSCLC, 1.46 µM; in the test on HCT-15 colon, 0.851 µM. Further, the GI50 was 0.904 µM in the test on HL-60(TB) leukemia and 0.498 µM with MOLT-4 leukemia. The TGI in the test on SNB-19 CNS came to 8.76 µM; in the test on SF-295 CNS, 7.3 µM; in the test with MDA-MB-231 breast, 3.32 µM; in the test with NCI-H460 lung, 12.5 µM; with HOP-92 NSCLC, 4.24 µM; with HCT-15 colon, 2.25 µM. In addition, the TGI in the test with HL-60(TB) leukemia is 5.65 µM; in the test on MOLT-4 leukemia, 7.84 µM.

With `N#Cc1ccc(-n2cnc(NC(=O)[C@H]3CCN(C#N)C3)c2)cc1`, the GI50 in the test on SNB-19 CNS was 3.51 µM; with SF-295 CNS it was 2.79 µM; in the test on MDA-MB-231 breast, 1.91 µM; in the test with NCI-H460 lung, 2.35 µM; in the test with HOP-92 NSCLC it was 1.92 µM; in the test with HCT-15 colon, 2.2 µM. Moreover, the GI50 was 0.51 µM with HL-60(TB) leukemia and 2.15 µM in the test on MOLT-4 leukemia. Moreover, the TGI is 98.7 µM in the test with SNB-19 CNS; greater than 66.3 µM in the test with SF-295 CNS; greater than 91.6 µM with MDA-MB-231 breast; greater than 34.7 µM in the test with NCI-H460 lung; 6.98 µM in the test with HOP-92 NSCLC; greater than 100 µM in the test with HCT-15 colon. Besides, the figures for the TGI in the test with HL-60(TB) leukemia and with MOLT-4 leukemia were 2.86 µM and greater than 29.8 µM, respectively.

`NC(=O)c1c(OCc2c(F)cc(Br)cc2F)nsc1NC(=O)NCCCCN1CCCC1`: the GI50 is 2.27 µM in the test on SNB-19 CNS; 2.26 µM in the test on SF-295 CNS; 1.55 µM in the test on MDA-MB-231 breast; 2.6 µM with NCI-H460 lung; 0.323 µM in the test with HOP-92 NSCLC; 2.85 µM in the test on HCT-15 colon. Further, the GI50 with HL-60(TB) leukemia is 2.4 µM; in the test on MOLT-4 leukemia it was 2.14 µM. The TGI was greater than 10 µM in the test on SNB-19 CNS; greater than 10 µM in the test on SF-295 CNS; 5.02 µM with MDA-MB-231 breast; greater than 10 µM in the test on NCI-H460 lung; greater than 10 µM with HOP-92 NSCLC; greater than 10 µM with HCT-15 colon. Moreover, the TGI came to 4.68 µM in the test on HL-60(TB) leukemia and 9.76 µM in the test on MOLT-4 leukemia.
